Test results reported in patent publication US6699681B2, “Endothelin converting enzymes and the amyloid β peptide” (Mayo Foundation for Medical Education and Research, priority 2000, dated 2004).
“Also recorded” adds a separate entry of the source.

Tests used:
[1] = tested on: Aβ concentration in plasma; assay: Treatment of guinea pigs with phosphoramidon, plasma Aβ by sandwich ELISA; format: in vivo, guinea pig; details: guinea pigs treated intravenously
Protocol: Animal experiments were conducted within the United States Department of Agriculture (USDA) and the National Institute of Health (NIH) guidelines for animal use and care. To prevent clotting and to facilitate the collection of plasma, each animal was given 100 USP units/kg heparin sodium salt (Sigma, St. Louis, Mo.) administered intraperitoneally (IP) prior to experimentation. Animals were anesthetized with a single IP injection of 0.9 mg/kg acepromazine maleate (Fermenta, Kansas City, Mo.) combined with 90 mg/kg Ketaset (Fort Dodge Laboratories, Fort Dodge, Iowa). […] During the entire operation, the animal's temperature was periodically monitored and anesthesia maintained by further intraperitoneal injections as necessary. […] Data was obtained from at least 2 animals, with the Aβ in each sample measured at least twice.
Human and guinea pig Aβ40 or Aβ42 was measured in plasma by sandwich ELISA as previously described (Suzuki et al., 1994, Science, 264:1336-1340) using the BAN-50/BA-27 or BAN-50/BC-05 antibody systems, respectively (Takeda; Japan). Hamster Aβ40- or Aβ42-derived from CHO cells was measured using the BNT-77/BA-27 or BNT-77/BC-05 antibody systems, respectively. Aβ concentration in samples was determined by comparison to synthetic Aβ40 or Aβ42 standards (Bachem, Switzerland). […]

H4 neuroglioma cells = details: reported; cited from earlier work
H4 cells = assay: Removal of synthetic Aβ spiked into culture medium of H4 cells; format: cell-based, human; details: incubated 6 or 24 hrs, presence vs absence of phosphoramidon
Protocol: Human and guinea pig Aβ40 or Aβ42 was measured in plasma by sandwich ELISA as previously described (Suzuki et al., 1994, Science, 264:1336-1340) using the BAN-50/BA-27 or BAN-50/BC-05 antibody systems, respectively (Takeda; Japan). Hamster Aβ40- or Aβ42-derived from CHO cells was measured using the BNT-77/BA-27 or BNT-77/BC-05 antibody systems, respectively. Aβ concentration in samples was determined by comparison to synthetic Aβ40 or Aβ42 standards (Bachem, Switzerland). Data was obtained from triplicate wells. […] Plates were read at 450 nm in a SpectraMax Plus spectrophotometer (Molecular Devices; Sunnyvale, Calif.) and analyzed by SOFTmax® PRO software. Aβ40 or Aβ42 were quantitated by comparison with the values obtained for each synthetic Aβ standard from the same plate. To exclude the possibility that the phosphoramidon-induced effect was due to inhibition of extracellular degradation and/or internalization of Aβ by H4 cells, synthetic Aβ was spiked into the culture medium, incubated for 6 or 24 hrs, and the amount of synthetic Aβ remaining in the medium was determined by sandwich ELISA. […] Intracellular Aβ has not been convincingly detected in H4 cells, presumably due to rapid secretion of the peptide.

**Q.** Which results are given for `CC(C)C[C@H](NP(=O)(O)O[C@@H]1O[C@@H](C)[C@H](O)[C@@H](O)[C@H]1O)C(=O)N[C@@H](Cc1c[nH]c2ccccc12)C(=O)O` [phosphoramidon]?
**A.** Aβ concentration in the plasma [1]: dose-dependent, rapid increase; extracellular Aβ concentration (H4 neuroglioma cells): significant increase; removal of synthetic Aβ spiked into the culture medium (H4 cells): removed equally; also recorded: not affected
